# Measurements as given in patent US9012678B2, “Processes for the preparation of fesoterodine” (Cadila Healthcare Limited, priority 2010, dated 2015).
# Tests used:
# [1] = Particle Size Distribution (PSD) by laser diffraction in a Malvern Master Sizer; assay type: physicochemical
# Method: Particle Size Distribution (PSD)” is determined by laser diffraction in a Malvern Master Sizer by using known method.
# [2] = Stability study for Fesoterodine Fumarate (description, water by KF, related substances by HPLC on storage); assay type: physicochemical
# Method: As used herein, the term “stable fesoterodine fumarate” fesoterodine fumarate containing any individual impurities less than 0.15% after exposure to a relative humidity of 60% at 25° for a period of at least three months or after exposure to a relative humidity of 75% at 40° for a period of at least three months
# 2) High Performance Liquid Chromatography (HPLC) Method for Determination of Impurity X in Fesoterodine Fumarate of formula (1)
# • Equipment: Shimadzu LC2010C HPLC system equipped with a wavelength UV-VIS detector or equivalent. • Column: Inertsil ODS-3 (250 mm×4.6 mm, 5 μm), Make: GL Sciences Part No: 5020-01732 • Flow rate: 1.2 mL/minute • Column oven temp: 30° C. • Wavelength: 220 nm • Injection volume: 10 μL • Run time: 60 minutes • Diluent: Premixed buffer and acetonitrile in the volume ratio of 75:25. Preparation of Buffer:
# Transfer 1 mL orthophosphoric acid in 1000 mL volumetric flask containing about 500 mL of water and make up the volume with water. Filter through 0.2 μm membrane filter paper.
# Weigh accurately and transfer about 25 mg of sample of Fesoterodine Fumarate or Fesoterodine Fumarate (technical) into a 50 mL volumetric flask. Add 5 mL tetrahydrofuran, sonicate to dissolve and make up the volume with diluent. Make fresh two preparations at the time of injection.
# Inject sample solutions containing the chromatogram upto the end of gradient. Determine the area of each impurity using suitable integrator.
# [3] = 1 Month 2 to 8° C., PSD: D(90) = 10 microns
# [4] = 1 Month 2 to 8° C., PSD: D(90) = 270 microns
# [5] = 1 Month 25° C. ± 2° C./RH 60% ± 5%, PSD: D(90) = 10 microns
# [6] = 1 Month 25° C. ± 2° C./RH 60% ± 5%, PSD: D(90) = 270 microns
# [7] = 1 Month 40° C. ± 2° C./RH 75% ± 5%, PSD: D(90) = 10 microns
# [8] = 1 Month 40° C. ± 2° C./RH 75% ± 5%, PSD: D(90) = 270 microns
# [9] = 2 Months 2 to 8° C., PSD: D(90) = 10 microns
# [10] = 2 Months 2 to 8° C., PSD: D(90) = 270 microns
# [11] = 2 Months 25° C. ± 2° C./RH 60% ± 5%, PSD: D(90) = 270 microns
# [12] = 2 Months 25° C. ± 2° C./RH, PSD: D(90) = 10 microns
compound,measurement,setting,value
"CC(C)C(=O)Oc1ccc(CO)cc1[C@H](CCN(C(C)C)C(C)C)c1ccccc1.O=C(O)/C=C/C(=O)O [Fesoterodine Fumarate, isobutyric acid 2-[(R)-3-diisopropylammonium-1-phenylpropyl)-4-(hydroxy-methyl)phenyl ester hydrogen fumarate]",PSD: D(90),"[1]; batch from IPA/diisopropyl ether, D(90) less than 200 microns",PSD: D(90) = 10 microns
same,PSD: D(90),"[1]; batch of Example 16 (methyl ethyl ketone/cyclohexane, seeded), D(90) higher than 200 microns",PSD: D(90) = 270 microns
same,Description,[2]; [3],White
same,Related substance (by HPLC) i) Diol,[2]; [3],0.06 % w/w
same,Related substance (by HPLC) ii) Diester,[2]; [3],0.03 % w/w
same,Related substance (by HPLC) iii) Oxidized (RRT 1.37),[2]; [3],0.09 % w/w
same,Related substance (by HPLC) iv) Any individual impurities,[2]; [3],0.03 % w/w
same,Related substance (by HPLC) v) Total impurities,[2]; [3],0.21 % w/w
same,Water by KF,[2]; [3],0.16 % w/w
same,Description,[2]; [4],White
same,Related substance i) Diol,[2]; [4],0.05%
same,Related substance ii) Diester,[2]; [4],BQL
same,Related substance iii) Oxidized (RRT 1.37),[2]; [4],BQL
same,Related substance iv) Any individual impurities,[2]; [4],BQL
same,Related substance v) Total impurities,[2]; [4],0.05%
same,Water by KF,[2]; [4],0.16 % w/w
same,Description,[2]; [5],White
same,Related substance (by HPLC) i) Diol,[2]; [5],0.09 % w/w
same,Related substance (by HPLC) ii) Diester,[2]; [5],BQL
same,Related substance (by HPLC) iii) Oxidized (RRT 1.37),[2]; [5],0.15 % w/w
same,Related substance (by HPLC) iv) Any individual impurities,[2]; [5],0.02 % w/w
same,Related substance (by HPLC) v) Total impurities,[2]; [5],0.26 % w/w
same,Water by KF,[2]; [5],0.15 % w/w
same,Description,[2]; [6],White
same,Related substance i) Diol,[2]; [6],0.05%
same,Related substance ii) Diester,[2]; [6],BQL
same,Related substance iii) Oxidized (RRT 1.37),[2]; [6],BQL
same,Related substance iv) Any individual impurities,[2]; [6],BQL
same,Related substance v) Total impurities,[2]; [6],0.05%
same,Water by KF,[2]; [6],0.15 % w/w
same,Description,[2]; [7],White
same,Related substance (by HPLC) i) Diol,[2]; [7],0.07 % w/w
same,Related substance (by HPLC) ii) Diester,[2]; [7],BQL
same,Related substance (by HPLC) iii) Oxidized (RRT 1.37),[2]; [7],0.17 % w/w
same,Related substance (by HPLC) iv) Any individual impurities,[2]; [7],0.02 % w/w
same,Related substance (by HPLC) v) Total impurities,[2]; [7],0.28 % w/w
same,Water by KF,[2]; [7],0.12 % w/w
same,Description,[2]; [8],White
same,Related substance i) Diol,[2]; [8],0.33%
same,Related substance ii) Diester,[2]; [8],0.04%
same,Related substance iii) Oxidized (RRT 1.37),[2]; [8],0.06%
same,Related substance iv) Any individual impurities,[2]; [8],0.06%
same,Related substance v) Total impurities,[2]; [8],0.59%
same,Water by KF,[2]; [8],0.56 % w/w
same,Description,[2]; [9],White
same,Related substance (by HPLC) i) Diol,[2]; [9],0.06 % w/w
same,Related substance (by HPLC) ii) Diester,[2]; [9],BQL
same,Related substance (by HPLC) iii) Oxidized (RRT 1.37),[2]; [9],0.09 % w/w
same,Related substance (by HPLC) iv) Any individual impurities,[2]; [9],0.03 % w/w
same,Related substance (by HPLC) v) Total impurities,[2]; [9],0.21 % w/w
same,Water by KF,[2]; [9],0.16 % w/w
same,Description,[2]; [10],White
same,Related substance i) Diol,[2]; [10],0.06%
same,Related substance ii) Diester,[2]; [10],BQL
same,Related substance iii) Oxidized (RRT 1.37),[2]; [10],BQL
same,Related substance iv) Any individual impurities,[2]; [10],BQL
same,Related substance v) Total impurities,[2]; [10],0.06%
same,Water by KF,[2]; [10],0.16 % w/w
same,Description,[2]; [11],White
same,Related substance i) Diol,[2]; [11],0.04%
same,Related substance ii) Diester,[2]; [11],BQL
same,Related substance iii) Oxidized (RRT 1.37),[2]; [11],BQL
same,Related substance iv) Any individual impurities,[2]; [11],BQL
same,Related substance v) Total impurities,[2]; [11],0.04%
same,Water by KF,[2]; [11],0.15 % w/w
same,Description,[2]; [12],White
same,Related substance (by HPLC) i) Diol,[2]; [12],0.09 % w/w
same,Related substance (by HPLC) ii) Diester,[2]; [12],BQL
same,Related substance (by HPLC) iii) Oxidized (RRT 1.37),[2]; [12],0.17 % w/w
same,Related substance (by HPLC) iv) Any individual impurities,[2]; [12],0.02 % w/w
same,Related substance (by HPLC) v) Total impurities,[2]; [12],0.26 % w/w
